Source: PubChem BioAssay (NCI)
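Cells were grown in 96-well plates and exposed to each compound for 48 hours at five concentrations; endpoints were interpolated linearly between bracketing concentrations, or set to the highest concentration if not reached. At the GI50, growth is halved. TGI: total growth inhibition.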

Columns and labels:
Assay in all cases: NCI anticancer screen, dose series, 48 h
HCT-116 colon = tested on: HCT-116 colon
NCI-H23 lung = tested on: NCI-H23 lung
UO-31 renal = tested on: UO-31 renal
BT-549 breast = tested on: BT-549 breast
RPMI-8226 leukemia = tested on: RPMI-8226 leukemia
HCT-15 colon = tested on: HCT-15 colon
MDA-MB-435 = tested on: MDA-MB-435
MCF7 breast = tested on: MCF7 breast
HS 578T breast = tested on: HS 578T breast
MDA-MB-231 breast = tested on: MDA-MB-231 breast
A498 renal = tested on: A498 renal
HT29 colon = tested on: HT29 colon
NCI/ADR-RES ovarian = tested on: NCI/ADR-RES ovarian
KM12 colon = tested on: KM12 colon
M14 melanoma = tested on: M14 melanoma
MOLT-4 leukemia = tested on: MOLT-4 leukemia
RXF 393 renal = tested on: RXF 393 renal
UACC-62 melanoma = tested on: UACC-62 melanoma
HOP-92 NSCLC = tested on: HOP-92 NSCLC
T-47D breast = tested on: T-47D breast
OVCAR-4 ovarian = tested on: OVCAR-4 ovarian
SK-MEL-5 melanoma = tested on: SK-MEL-5 melanoma
EKVX NSCLC = tested on: EKVX NSCLC
NCI-H226 lung = tested on: NCI-H226 lung
K-562 leukemia = tested on: K-562 leukemia
786-0 renal = tested on: 786-0 renal
U251 CNS = tested on: U251 CNS
HOP-62 NSCLC = tested on: HOP-62 NSCLC
LOX IMVI melanoma = tested on: LOX IMVI melanoma
SR leukemia = tested on: SR leukemia
CCRF-CEM leukemia = tested on: CCRF-CEM leukemia
SF-268 CNS = tested on: SF-268 CNS
DU-145 prostate = tested on: DU-145 prostate
PC-3 prostate = tested on: PC-3 prostate
TK-10 renal = tested on: TK-10 renal
OVCAR-8 ovarian = tested on: OVCAR-8 ovarian
SNB-75 CNS = tested on: SNB-75 CNS
NCI-H460 lung = tested on: NCI-H460 lung
SNB-19 CNS = tested on: SNB-19 CNS
CAKI-1 renal = tested on: CAKI-1 renal
SK-MEL-2 melanoma = tested on: SK-MEL-2 melanoma
SK-MEL-28 melanoma = tested on: SK-MEL-28 melanoma
HL-60(TB) leukemia = tested on: HL-60(TB) leukemia
ACHN renal = tested on: ACHN renal
HCC-2998 colon = tested on: HCC-2998 colon
SK-OV-3 ovarian = tested on: SK-OV-3 ovarian
SW-620 colon = tested on: SW-620 colon
UACC-257 melanoma = tested on: UACC-257 melanoma
SF-539 CNS = tested on: SF-539 CNS
SF-295 CNS = tested on: SF-295 CNS
IGROV1 ovarian = tested on: IGROV1 ovarian
COLO 205 colon = tested on: COLO 205 colon
OVCAR-5 ovarian = tested on: OVCAR-5 ovarian
A549 NSCLC = tested on: A549 NSCLC
OVCAR-3 ovarian = tested on: OVCAR-3 ovarian
NCI-H522 lung = tested on: NCI-H522 lung
SN12C renal = tested on: SN12C renal
MALME-3M melanoma = tested on: MALME-3M melanoma

`CCCCNC(=O)Nc1c(C(N)=O)c2n(c1C(=O)OCC)CCCCC2` was tested, and the TGI (HCT-116 colon) was > 100 µM, the TGI (NCI-H23 lung) was > 100 µM and the TGI (UO-31 renal) was > 100 µM. For the same compound, the TGI (BT-549 breast) was > 100 µM, the TGI (RPMI-8226 leukemia) was > 100 µM and the TGI (HCT-15 colon) was > 100 µM. The TGI (MDA-MB-435) was > 100 µM, the TGI (MCF7 breast) was > 100 µM and the TGI (HS 578T breast) was > 100 µM. For the same compound, the TGI (MDA-MB-231 breast) was 58.4 µM, the TGI (A498 renal) was > 100 µM and the TGI (HT29 colon) was > 100 µM. The TGI (NCI/ADR-RES ovarian) was > 100 µM, the TGI (KM12 colon) was > 100 µM and the TGI (M14 melanoma) was > 100 µM. The TGI (MOLT-4 leukemia) was > 100 µM, the TGI (RXF 393 renal) was > 100 µM and the TGI (UACC-62 melanoma) was > 100 µM. The TGI (HOP-92 NSCLC) was > 100 µM, the TGI (T-47D breast) was > 100 µM and the TGI (OVCAR-4 ovarian) was > 100 µM. The TGI (SK-MEL-5 melanoma) was > 100 µM, the TGI (EKVX NSCLC) was > 100 µM and the TGI (NCI-H226 lung) was > 100 µM. The TGI (K-562 leukemia) was > 100 µM, the TGI (786-0 renal) was > 100 µM and the TGI (U251 CNS) was > 100 µM. For the same compound, the TGI (HOP-62 NSCLC) was > 100 µM, the TGI (LOX IMVI melanoma) was > 100 µM and the TGI (SR leukemia) was > 100 µM. For the same compound, the TGI (CCRF-CEM leukemia) was > 100 µM, the TGI (SF-268 CNS) was > 100 µM and the TGI (DU-145 prostate) was > 100 µM. The TGI (PC-3 prostate) was > 100 µM, the TGI (TK-10 renal) was > 100 µM and the TGI (OVCAR-8 ovarian) was > 100 µM. For the same compound, the TGI (SNB-75 CNS) was > 100 µM, the TGI (NCI-H460 lung) was > 100 µM and the TGI (SNB-19 CNS) was > 100 µM. The TGI (CAKI-1 renal) was > 100 µM, the TGI (SK-MEL-2 melanoma) was > 100 µM and the TGI (SK-MEL-28 melanoma) was > 100 µM. For the same compound, the TGI (HL-60(TB) leukemia) was > 100 µM, the TGI (ACHN renal) was > 100 µM and the TGI (HCC-2998 colon) was > 100 µM. The TGI (SK-OV-3 ovarian) was > 100 µM, the TGI (SW-620 colon) was > 100 µM and the TGI (UACC-257 melanoma) was > 100 µM. For the same compound, the TGI (SF-539 CNS) was > 100 µM, the TGI (SF-295 CNS) was > 100 µM and the TGI (IGROV1 ovarian) was > 100 µM. For the same compound, the TGI (COLO 205 colon) was > 100 µM.
With `C/C(=C\CCc1ccoc1)CC/C=C(\C)CCCN1CCC(CO)CC1` the GI50 (HCT-116 colon) was 2.96 µM, the TGI (HCT-116 colon) was 10.4 µM and the GI50 (NCI-H23 lung) was 3.78 µM. For the same compound, the TGI (NCI-H23 lung) was 14.7 µM, the GI50 (UO-31 renal) was 3.85 µM and the TGI (UO-31 renal) was 16.7 µM. For the same compound, the GI50 (OVCAR-5 ovarian) was 4.39 µM, the TGI (OVCAR-5 ovarian) was 18.6 µM and the GI50 (BT-549 breast) was 2.77 µM. For the same compound, the TGI (BT-549 breast) was 12.1 µM, the GI50 (RPMI-8226 leukemia) was 2.03 µM and the TGI (RPMI-8226 leukemia) was 4.48 µM. It also gave a GI50 (HCT-15 colon) of 3.07 µM, a TGI (HCT-15 colon) of 12 µM and a GI50 (MDA-MB-435) of 3.07 µM. It also gave a TGI (MDA-MB-435) of 10.8 µM, a GI50 (MCF7 breast) of 3.24 µM and a TGI (MCF7 breast) of 11.6 µM. The GI50 (HS 578T breast) was 2.6 µM, the TGI (HS 578T breast) was 8.08 µM and the GI50 (MDA-MB-231 breast) was 1.73 µM. The TGI (MDA-MB-231 breast) was 4.39 µM, the GI50 (A498 renal) was 1.96 µM and the TGI (A498 renal) was 5.96 µM. For the same compound, the GI50 (HT29 colon) was 2.26 µM, the TGI (HT29 colon) was 7.48 µM and the GI50 (NCI/ADR-RES ovarian) was 3.69 µM. The TGI (NCI/ADR-RES ovarian) was 14.6 µM, the GI50 (A549 NSCLC) was 3.26 µM and the TGI (A549 NSCLC) was 13.8 µM. The GI50 (KM12 colon) was 2.45 µM, the TGI (KM12 colon) was 5.41 µM and the GI50 (M14 melanoma) was 1.94 µM. For the same compound, the TGI (M14 melanoma) was 3.92 µM, the GI50 (MOLT-4 leukemia) was 2.32 µM and the TGI (MOLT-4 leukemia) was 5.67 µM. It also gave a GI50 (RXF 393 renal) of 1.54 µM, a TGI (RXF 393 renal) of 4.26 µM and a GI50 (UACC-62 melanoma) of 1.77 µM. It also gave a TGI (UACC-62 melanoma) of 3.74 µM, a GI50 (HOP-92 NSCLC) of 1.44 µM and a TGI (HOP-92 NSCLC) of 6.16 µM. The GI50 (T-47D breast) was 2.51 µM, the TGI (T-47D breast) was 8.92 µM and the GI50 (OVCAR-4 ovarian) was 3.28 µM. For the same compound, the TGI (OVCAR-4 ovarian) was 14.8 µM, the GI50 (OVCAR-3 ovarian) was 3.78 µM and the TGI (OVCAR-3 ovarian) was 13.7 µM. The GI50 (SK-MEL-5 melanoma) was 1.5 µM, the TGI (SK-MEL-5 melanoma) was 2.84 µM and the GI50 (NCI-H522 lung) was 2.17 µM. For the same compound, the TGI (NCI-H522 lung) was 5.83 µM, the GI50 (SN12C renal) was 4.54 µM and the TGI (SN12C renal) was 18.9 µM. The GI50 (NCI-H226 lung) was 6.16 µM, the TGI (NCI-H226 lung) was 22.3 µM and the GI50 (K-562 leukemia) was 1.52 µM. The TGI (K-562 leukemia) was 3.86 µM, the GI50 (786-0 renal) was 2.35 µM and the TGI (786-0 renal) was 5.37 µM. For the same compound, the GI50 (U251 CNS) was 2.41 µM, the TGI (U251 CNS) was 9.24 µM and the GI50 (HOP-62 NSCLC) was 3.39 µM. For the same compound, the TGI (HOP-62 NSCLC) was 9.6 µM, the GI50 (LOX IMVI melanoma) was 1.81 µM and the TGI (LOX IMVI melanoma) was 3.47 µM. The GI50 (SR leukemia) was 1.66 µM, the TGI (SR leukemia) was 4.29 µM and the GI50 (CCRF-CEM leukemia) was 2.42 µM. It also gave a TGI (CCRF-CEM leukemia) of 6.47 µM, a GI50 (MALME-3M melanoma) of 1.79 µM and a TGI (MALME-3M melanoma) of 3.52 µM. It also gave a GI50 (SF-268 CNS) of 5.65 µM, a TGI (SF-268 CNS) of 19.4 µM and a GI50 (DU-145 prostate) of 8.41 µM. It also gave a TGI (DU-145 prostate) of 20.6 µM, a GI50 (TK-10 renal) of 2.41 µM and a TGI (TK-10 renal) of 6.54 µM. For the same compound, the GI50 (OVCAR-8 ovarian) was 5.19 µM, the TGI (OVCAR-8 ovarian) was 19 µM and the GI50 (SNB-75 CNS) was 2.1 µM. It also gave a TGI (SNB-75 CNS) of 7.79 µM, a GI50 (NCI-H460 lung) of 2.08 µM and a TGI (NCI-H460 lung) of 4.37 µM. The GI50 (SNB-19 CNS) was 4.61 µM, the TGI (SNB-19 CNS) was 19.4 µM and the GI50 (CAKI-1 renal) was 4.26 µM. It also gave a TGI (CAKI-1 renal) of 16.5 µM, a GI50 (SK-MEL-28 melanoma) of 1.89 µM and a TGI (SK-MEL-28 melanoma) of 4.03 µM. For the same compound, the GI50 (HL-60(TB) leukemia) was 1.96 µM, the TGI (HL-60(TB) leukemia) was 3.95 µM and the GI50 (ACHN renal) was 4.32 µM. For the same compound, the TGI (ACHN renal) was 16.7 µM, the GI50 (HCC-2998 colon) was 2.1 µM and the TGI (HCC-2998 colon) was 4.03 µM. For the same compound, the GI50 (SK-OV-3 ovarian) was 6.94 µM, the TGI (SK-OV-3 ovarian) was 20 µM and the GI50 (SW-620 colon) was 2.06 µM. For the same compound, the TGI (SW-620 colon) was 5.08 µM, the GI50 (UACC-257 melanoma) was 2.16 µM and the TGI (UACC-257 melanoma) was 5.12 µM. It also gave a GI50 (SF-539 CNS) of 2.39 µM, a TGI (SF-539 CNS) of 6.9 µM and a GI50 (SF-295 CNS) of 2.28 µM. It also gave a TGI (SF-295 CNS) of 5.41 µM, a GI50 (IGROV1 ovarian) of 5.33 µM and a TGI (IGROV1 ovarian) of 19 µM. For the same compound, the GI50 (COLO 205 colon) was 1.94 µM and the TGI (COLO 205 colon) was 3.98 µM.
